# Like-named read-outs stand apart in the source and are kept apart here.
# What was measured:
# PAD4 [1] = target: T1, PAD4 (Homo sapiens, UniProt Q9UM07); test: Substrate activity with PAD4
# PAD1 [2] = target: T2, PAD1 (Homo sapiens, UniProt Q9ULC6); test: Substrate activity with PAD1
# T2 sequence (Q9ULC6 1-663): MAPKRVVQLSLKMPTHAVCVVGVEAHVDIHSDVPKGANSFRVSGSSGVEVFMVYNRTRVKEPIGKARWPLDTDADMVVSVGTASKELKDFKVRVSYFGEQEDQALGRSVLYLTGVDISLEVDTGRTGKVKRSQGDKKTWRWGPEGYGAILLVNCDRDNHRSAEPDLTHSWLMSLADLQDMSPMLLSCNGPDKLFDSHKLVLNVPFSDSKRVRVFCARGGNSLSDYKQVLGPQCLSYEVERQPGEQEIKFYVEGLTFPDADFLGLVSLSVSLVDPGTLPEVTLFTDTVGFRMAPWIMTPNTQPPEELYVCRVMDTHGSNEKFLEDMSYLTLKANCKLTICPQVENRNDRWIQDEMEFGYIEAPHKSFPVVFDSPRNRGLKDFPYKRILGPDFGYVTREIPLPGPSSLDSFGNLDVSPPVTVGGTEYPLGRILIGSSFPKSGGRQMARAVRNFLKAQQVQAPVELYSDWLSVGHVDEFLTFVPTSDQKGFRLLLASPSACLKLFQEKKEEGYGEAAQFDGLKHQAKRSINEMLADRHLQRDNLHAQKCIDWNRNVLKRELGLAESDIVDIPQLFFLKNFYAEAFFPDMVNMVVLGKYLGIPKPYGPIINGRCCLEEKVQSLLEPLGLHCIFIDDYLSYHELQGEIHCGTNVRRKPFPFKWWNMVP
# PAD3 [3] = target: T3, PAD3 (Homo sapiens, UniProt Q9ULW8); test: Substrate activity with PAD3
# T3 sequence (Q9ULW8 1-664): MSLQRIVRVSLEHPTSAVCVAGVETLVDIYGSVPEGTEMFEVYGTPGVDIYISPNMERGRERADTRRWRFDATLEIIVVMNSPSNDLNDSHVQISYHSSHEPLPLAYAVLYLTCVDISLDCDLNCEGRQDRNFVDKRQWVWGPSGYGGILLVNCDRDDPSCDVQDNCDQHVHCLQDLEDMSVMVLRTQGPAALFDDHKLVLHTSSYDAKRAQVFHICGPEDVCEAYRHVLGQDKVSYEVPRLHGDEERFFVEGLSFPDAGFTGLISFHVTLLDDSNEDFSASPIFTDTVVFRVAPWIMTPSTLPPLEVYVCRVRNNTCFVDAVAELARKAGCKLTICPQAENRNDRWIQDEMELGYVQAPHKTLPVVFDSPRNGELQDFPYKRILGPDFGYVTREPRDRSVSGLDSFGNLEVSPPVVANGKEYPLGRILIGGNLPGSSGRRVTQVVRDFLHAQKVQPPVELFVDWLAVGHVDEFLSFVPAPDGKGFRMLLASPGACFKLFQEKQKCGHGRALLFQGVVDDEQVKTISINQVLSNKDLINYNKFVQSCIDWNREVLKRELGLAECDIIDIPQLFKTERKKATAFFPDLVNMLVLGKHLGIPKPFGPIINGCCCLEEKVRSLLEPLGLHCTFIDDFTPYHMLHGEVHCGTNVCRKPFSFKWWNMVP
# PAD2 [4] = target: T4, PAD2 (Homo sapiens, UniProt Q9Y2J8); test: Substrate activity with PAD2
# PAD1 [5] = target: T2, PAD1; test: PAD1 inhibition, IC50 determination; assay type: biochemical; conditions: read-out: IC50 PAD1
# PAD4 Q346A mutant = test: IC50 with PAD4 Q346A mutant; conditions: relative to wild type PAD4
# PAD4 R639Q mutant = test: IC50 with PAD4 R639Q mutant; conditions: relative to wild type PAD4
# PAD3 [6] = target: T3, PAD3; test: PAD3 inhibition, IC50 determination; assay type: biochemical; conditions: read-out: IC50 PAD3
# PAD4 R374Q mutant = test: IC50 with PAD4 R374Q mutant; conditions: relative to wild type PAD4
# PAD2 [7] = target: T4, PAD2; test: PAD2 inhibition, IC50 determination; assay type: biochemical; conditions: read-out: IC50 PAD2
# PAD4 [8] = target: T1, PAD4; test: PAD4 inhibition, IC50 determination
# PAD4 [9] = target: T1, PAD4; test: Dialysis of PAD4•inactivator complex; assay type: biochemical; conditions: excess inhibitor, 20 h of dialysis
# PAD4 [10] = target: T1, PAD4; test: Substrate protection experiments; assay type: biochemical; conditions: two different concentrations of substrate
# [11] = animal models of RA, UC, and neuron degeneration; cited from earlier work
# PAD1 [12] = target: T2, PAD1; conditions: read-out: IC50 PAD1; first generation inhibitors; cited from earlier work
# PAD3 [13] = target: T3, PAD3; conditions: read-out: IC50 PAD3; first generation inhibitors; cited from earlier work
# T1 sequence (Q9UM07 whole entry): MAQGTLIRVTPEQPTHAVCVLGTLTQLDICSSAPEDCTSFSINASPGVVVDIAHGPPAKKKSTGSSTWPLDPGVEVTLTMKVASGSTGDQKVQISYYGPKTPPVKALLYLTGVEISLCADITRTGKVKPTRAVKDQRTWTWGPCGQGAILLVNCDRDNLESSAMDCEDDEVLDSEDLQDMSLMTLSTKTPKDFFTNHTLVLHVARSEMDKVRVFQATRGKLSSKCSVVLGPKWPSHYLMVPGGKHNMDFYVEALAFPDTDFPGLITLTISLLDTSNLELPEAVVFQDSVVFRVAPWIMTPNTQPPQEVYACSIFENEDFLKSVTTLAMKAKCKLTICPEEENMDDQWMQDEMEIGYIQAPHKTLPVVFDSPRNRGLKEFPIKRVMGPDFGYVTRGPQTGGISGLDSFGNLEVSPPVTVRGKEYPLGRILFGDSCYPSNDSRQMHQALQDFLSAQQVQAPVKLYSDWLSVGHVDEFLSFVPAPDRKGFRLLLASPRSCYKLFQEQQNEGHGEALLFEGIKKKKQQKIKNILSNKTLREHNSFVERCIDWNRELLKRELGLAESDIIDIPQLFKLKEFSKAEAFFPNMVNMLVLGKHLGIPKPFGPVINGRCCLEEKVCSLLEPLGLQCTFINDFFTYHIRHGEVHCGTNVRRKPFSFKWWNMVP
# T4 sequence (Q9Y2J8 whole entry): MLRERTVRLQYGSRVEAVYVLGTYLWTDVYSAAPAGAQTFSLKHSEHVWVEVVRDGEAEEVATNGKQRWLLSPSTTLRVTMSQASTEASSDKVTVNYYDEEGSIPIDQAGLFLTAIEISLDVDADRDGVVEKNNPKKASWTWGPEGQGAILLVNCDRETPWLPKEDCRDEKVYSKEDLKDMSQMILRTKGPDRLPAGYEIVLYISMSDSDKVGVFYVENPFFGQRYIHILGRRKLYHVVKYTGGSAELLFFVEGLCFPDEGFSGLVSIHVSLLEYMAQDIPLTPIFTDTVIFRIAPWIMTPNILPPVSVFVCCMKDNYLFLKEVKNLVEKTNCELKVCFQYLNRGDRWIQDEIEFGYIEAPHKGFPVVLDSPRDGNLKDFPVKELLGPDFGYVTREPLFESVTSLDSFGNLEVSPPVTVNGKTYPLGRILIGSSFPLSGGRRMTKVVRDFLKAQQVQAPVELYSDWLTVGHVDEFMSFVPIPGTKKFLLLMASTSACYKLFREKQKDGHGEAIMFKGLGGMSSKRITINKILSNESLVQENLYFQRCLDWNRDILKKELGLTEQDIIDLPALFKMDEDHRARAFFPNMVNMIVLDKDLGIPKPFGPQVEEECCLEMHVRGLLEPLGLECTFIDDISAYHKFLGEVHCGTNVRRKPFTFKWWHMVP
compound,measurement,setting,value
Ac-Threonine-Aspartate-Arginine-NH2 [Ac-TDR-NH2],substrate quality for PAD4,PAD4 [1],excellent substrate
same,substrate quality for PAD1,PAD1 [2],excellent substrate
same,substrate quality for PAD3,PAD3 [3],relatively poor
same,substrate quality for PAD2,PAD2 [4],relatively poor
"CC(=O)N[C@H](C(=O)N[C@@H](CC(=O)O)C(=O)N[C@@H](CCCN=C(N)CF)C(N)=O)[C@@H](C)O [TDFA, Thr-Asp-F-amidine]",IC50,PAD1 [5],8.5 ± 0.8 µM
same,increase of IC50 with Q346A mutant,PAD4 Q346A mutant,1.9 fold
same,increase of IC50 with R639Q mutant,PAD4 R639Q mutant,2.9 fold
same,IC50,PAD3 [6],26 ± 7.4 µM
same,increase of IC50 with R374Q mutant,PAD4 R374Q mutant,5.2 fold
same,IC50,PAD2 [7],71 ± 4.4 µM
same,"selectivity for PAD4 relative to the other PADs, based on IC50 values",PAD4 [8],≥ 4 fold
same,enhancement in potency relative to F-amidine (IC50),PAD4 [8]; PAD4,~ 10 fold
same,IC50,PAD4 [8]; read-out: IC50 PAD4,2300 ± 200 nM
same,recovery of PAD4 activity after dialysis,PAD4 [9],no recovery of activity
same,rates of inactivation at the higher concentration of substrate,PAD4 [10],considerably lower
"N=C(CCl)NCCC[C@H](NC(=O)c1ccccc1)C(N)=O [Cl-amidine, N-alpha-benzoyl-N5-(2-chloro-1-iminoethyl)-L-ornithine amide]",effect on disease severity in animal models,[11],reduces disease severity
NC(=O)[C@H](CCCN=C(N)CF)NC(=O)c1ccccc1 [F-amidine],IC50,PAD1 [12],30 ± 1.3 µM
same,IC50,PAD3 [13],≥ 350 µM

# Source: paper PMC3262960 (ACS Chemical Biology, 2011)
